Measurements taken from the NIST ThermoML archive (doi:10.1021/je9002306).

What was measured:
[1] = cn = amount concentration of the nth substance listed, in mol/dm3; settings: 298.15 K, 101.3 kPa, Liquid, Wayne-Kerr 6430B Auto Balance Bridge
[2] = mn = molality of the nth substance listed, in mol/kg; settings: 298.15 K, 101.3 kPa, Liquid, Vibrating tube method

CCCCCCCCCCCCn1cc[n+](C)c1.[Br-] [1-dodecyl-3-methylimidazolium bromide] + OCCO
Settings	mass density [kg/m3]	molar conductivity [S·m2/mol]
[1], c1 = 0.000348	–	0.000654
[1], c1 = 0.0004233	–	0.000653
[1], c1 = 0.0004995	–	0.000652
[1], c1 = 0.0005785	–	0.00065
[1], c1 = 0.0006521	–	0.000649
[1], c1 = 0.0007213	–	0.000648
[1], c1 = 0.0008076	–	0.000646
[1], c1 = 0.0008687	–	0.000645
[1], c1 = 0.0009337	–	0.000644
[1], c1 = 0.001012	–	0.000643
[2], m1 = 0.003873	1109.91	–
[2], m1 = 0.007663	1109.87	–
[2], m1 = 0.01013	1109.85	–
[2], m1 = 0.0133	1109.82	–
[2], m1 = 0.0168	1109.78	–
[2], m1 = 0.02023	1109.75	–
[2], m1 = 0.03123	1109.63	–
[2], m1 = 0.03429	1109.6	–

CCCCCCCCn1cc[n+](C)c1.[Br-] [1-methyl-3-octylimidazolium bromide] + CN(C)C=O
Settings	mass density [kg/m3]	molar conductivity [S·m2/mol]
[1], c1 = 0.0002813	–	0.007841
[1], c1 = 0.0003412	–	0.007808
[1], c1 = 0.0003997	–	0.007775
[1], c1 = 0.0004885	–	0.007732
[1], c1 = 0.0005571	–	0.0077
[1], c1 = 0.0006412	–	0.007663
[1], c1 = 0.0007099	–	0.007638
[1], c1 = 0.0007743	–	0.007612
[1], c1 = 0.000834	–	0.00759
[1], c1 = 0.0008925	–	0.007568
[2], m1 = 0.0036	944.562	–
[2], m1 = 0.00742	944.824	–
[2], m1 = 0.01114	945.075	–
[2], m1 = 0.01485	945.316	–
[2], m1 = 0.01862	945.557	–
[2], m1 = 0.02243	945.792	–
[2], m1 = 0.02634	946.03	–
[2], m1 = 0.03009	946.26	–
[2], m1 = 0.03685	946.653	–
[2], m1 = 0.04079	946.877	–

CCCCCCCCn1cc[n+](C)c1.[Br-] [1-methyl-3-octylimidazolium bromide] + C[S+](C)[O-]
Settings	mass density [kg/m3]	molar conductivity [S·m2/mol]
[1], c1 = 0.0002816	–	0.003566
[1], c1 = 0.0003649	–	0.003551
[1], c1 = 0.0004495	–	0.00354
[1], c1 = 0.0005343	–	0.003529
[1], c1 = 0.000601	–	0.003521
[1], c1 = 0.000699	–	0.00351
[1], c1 = 0.0007785	–	0.003501
[1], c1 = 0.0008592	–	0.003493
[1], c1 = 0.0009426	–	0.003485
[2], m1 = 0.003697	1095.43	–
[2], m1 = 0.007705	1095.54	–
[2], m1 = 0.01147	1095.63	–
[2], m1 = 0.01568	1095.74	–
[2], m1 = 0.01953	1095.84	–
[2], m1 = 0.02373	1095.95	–
[2], m1 = 0.02785	1096.05	–
[2], m1 = 0.03185	1096.15	–
[2], m1 = 0.03581	1096.25	–
[2], m1 = 0.03956	1096.34	–

CCCCCCCCn1cc[n+](C)c1.[Br-] [1-methyl-3-octylimidazolium bromide] + OCCO
Settings	mass density [kg/m3]	molar conductivity [S·m2/mol]
[1], c1 = 0.0003384	–	0.000678
[1], c1 = 0.0004129	–	0.000677
[1], c1 = 0.0004841	–	0.000675
[1], c1 = 0.0005608	–	0.000674
[1], c1 = 0.0006367	–	0.000673
[1], c1 = 0.0007095	–	0.000672
[1], c1 = 0.0007842	–	0.000671
[1], c1 = 0.0008592	–	0.00067
[1], c1 = 0.0009615	–	0.000669
[1], c1 = 0.001054	–	0.000668
[2], m1 = 0.006765	1110.04	–
[2], m1 = 0.007869	1110.06	–
[2], m1 = 0.01325	1110.12	–
[2], m1 = 0.0167	1110.22	–
[2], m1 = 0.02074	1110.25	–
[2], m1 = 0.02364	1110.34	–
[2], m1 = 0.03075	1110.39	–
[2], m1 = 0.03492	1110.42	–
[2], m1 = 0.03798	1110.48	–

C[S+](C)[O-] [dimethyl sulfoxide] + CCCCCCCCCCCCn1cc[n+](C)c1.[Br-]
Settings	mass density [kg/m3]
[2], m2 = 0	1095.35

C[S+](C)[O-] [dimethyl sulfoxide] + CCCCCCCCCCn1cc[n+](C)c1.[Br-]
Settings	mass density [kg/m3]
[2], m2 = 0	1095.33

C[S+](C)[O-] [dimethyl sulfoxide] + CCCCCCCCn1cc[n+](C)c1.[Br-]
Settings	mass density [kg/m3]
[2], m2 = 0	1095.33

CN(C)C=O [dimethylformamide] + CCCCCCCCCCCCn1cc[n+](C)c1.[Br-]
Settings	mass density [kg/m3]
[2], m2 = 0	944.305

CN(C)C=O [dimethylformamide] + CCCCCCCCCCn1cc[n+](C)c1.[Br-]
Settings	mass density [kg/m3]
[2], m2 = 0	944.305

CN(C)C=O [dimethylformamide] + CCCCCCCCn1cc[n+](C)c1.[Br-]
Settings	mass density [kg/m3]
[2], m2 = 0	944.305
